# According to patent US12281093B2, “3-(1,2,3,6-tetrahydropyridin-2-YL) pyridine glutarate or a pharmaceutically acceptable solvate thereof” (PHILIP MORRIS PRODUCTS S.A., priority 2018, dated 2025):
# Like-named read-outs stand apart in the source and are kept apart here.
# Columns and labels:
# [1] = Forced degradation trial by HPLC-UV; assay type: physicochemical; conditions: oxidized sample, 3% hydrogen peroxide added; T=0, 4 and 18 hours; only condition of acid, base, control, heat, oxidation with degradation
# Method: For evaluation of stability by HPLC-UV, 200 μg/ml sample solution of anatabine and anatabine glutarate were prepared in duplicate by weighing approximately 10 mg and dissolving in 50 ml volumetric flask and bringing to the volume with deionized water. During the HPLC method optimization the run time and gradient have been adjusted for stability analysis. After the method optimization, a forced degradation trial was run to aid the planned stability assessment analysis by identifying any degradants or impurities present in the anatabine glutarate sample. The forced degradation trial analyzed samples under five conditions—acid, base, control, heat and oxidation—and were tested at T=0, 4 and 18 hours.
# [2] = Dynamic vapor sorption (DVS) testing; assay type: physicochemical; conditions: for mass gain between the starting weight and the end weight: DVS double cycle, final mass vs starting mass
# Method: Anatabine glutarate (20 mg) was dispensed directly into a pre-weighed sample pan and transferred to the instrument (DVS1 Advantage). Double cycle 0-90-O-90-0% RH method with 10% RH steps was applied.
# Dynamic vapor sorption (DVS) was performed on SMS DVS dynamic vapor sorption instrument using DVS control software v1.0.6.0. 30 mg of sample was weighed in stainless steel DVS basket before submitting for analysis. The samples were analyzed over the range of 0-90/RH with a maximum time of 6 hours per humidity stage. Each sample was exposed to a double cycle. Analysis was performed as a weight percent change from 0-90% RH with isothermal plots also being examined. XRPD analysis of all samples was performed post-DVS.
# This indicates a gain of moisture.
# This was further confirmed by an isotherm plot of this sample.
# When comparing X-ray diffraction patterns of the sample before and after DVS a match was observed.
# [3] = Stability assessment at accelerated conditions (40° C./75% RH, 7 days): visual, TGA, XRPD; assay type: physicochemical
# Method: Anatabine glutarate was analyzed at T=0, and an aliquot subsequently stored in a glass vial with a screw cap lid at accelerated conditions (40° C./75% RH) in an incubator for 7 days prior to further analysis. […] The stored sample was also assessed at T=0 and again post T=7 days using TGA, XRPD and HPLC-UV.
# Powder X-ray diffraction (XRPD) was performed on Bruker D8 Advance XRPD using 9 mm cavity and flat plate sample holders. Samples were prepared by coating them onto sample holders fitted with a zero background silicon wafer (5 1 0). Analysis was performed using a Cu Kα X-Ray source which operated at 40 kV at 40 mA and a Lynx Eye TM detector, all samples were analyzed over the range 2-40° 20.
# Thermogravimetric Analysis (TGA) was performed on Perkin Elmer PYRIS 1 TGA using 40 μL aluminum pans (vented) in ceramic crucibles. The samples were heated from room temperature to 400° C. at 10° C./min (unless otherwise stated) under a stream of nitrogen gas.
# [4] = Ambient stability assessment, open Petri dish, 7 days; assay type: physicochemical; conditions: ambient conditions, open in a fume hood, T=0, 3 and 7 days
# Method: For ambient stability assessment, anatabine glutarate (100 mg) was weighed into a clear glass Petri dish and retained at ambient conditions, open in a fume hood for 7 days. The stored sample was visually assessed at T=0, 3 and 7 days. No change in the color or any evidence of deliquescence were observed (FIG. 12).
# [5] = test system: STAT3 and NFkB signaling; conditions: periphery and CNS, via regulation of STAT3 and NFkB signaling; cited from earlier work
# [6] = in vivo; cited from earlier work
# [7] = test system: nuclear factor κB (NFKB); conditions: cited from earlier work
# [8] = Hygroscopicity of comparative anatabine salts (handling observation); assay type: physicochemical
# Method: Anatabine free base (160 mg, 1 mmol) was dissolved in anhydrous acetone (2.5 ml). To the formed solution was added a solution of anhydrous citric acid (192 mg, 1 mmol) in anhydrous acetone (3 ml, required sonication) with stirring under nitrogen. The mixture was stirred for 2 hours and then filtered under a blanket of nitrogen. The solid was washed with a small quantity of anhydrous acetone and dried in vacuo. A yield of 340 mg (96.6%) of anatabine citrate was achieved. […] Chemical structure and stoichiometry was confirmed by proton NMR. The solid form of the citrate contains captured acetone.
# [9] = stored at 40° C./75% RH for 7 days
compound,measurement,setting,value
"C1=CCC(c2cccnc2)NC1 (centres unmarked) [anatabine glutarate, 3-(1,2,3,6-tetrahydropyridin-2-yl)pyridine glutarate]",degradation by peak area (HPLC-UV),[1],> 1%
same,mass gain on first sorption cycle,"[2]; DVS 0-90% RH, first sorption cycle, majority of gain above 70% RH",55%
same,mass gain in second sorption cycle,[2]; DVS 0-90% RH,50%
same,mass gain in second sorption cycle,"[2]; DVS 0-90% RH, listed as Anatabine glutarate",about 50%
same,mass gain between the starting weight and the end weight,[2],5%
same,mass gain between the starting weight and the end weight,[2]; listed as Anatabine glutarate,about 5%
same,mass loss on first desorption cycle,[2]; DVS first desorption cycle,about 50%
same,mass above the starting mass after first desorption,"[2]; DVS, end of first desorption",5%
same,crystal form before and after DVS (XRPD comparison),"[2]; sample left overnight after DVS, recrystallized into a solid form",identical
same,visual assessment: color or evidence of deliquescence,"[3]; 40° C./75% RH, glass vial with screw cap, T=0, 3 and 7 days",no change observed
same,TGA mass loss between 20-130° C.,"[3]; T=7 days sample, 40° C./75% RH",0.5%
same,TGA mass loss between 150° C. and 400° C.,"[3]; T=7 days sample, 40° C./75% RH",80%
same,evidence of degradation,[3]; accelerated conditions (40° C./75% RH) after 7 days,has not shown evidence of degradation
same,change in thermal stability,[3]; [9],no change in thermal stability
same,change to the crystalline form (XRPD),[3]; [9],no change to the crystalline form
same,difference in TGA mass loss between T=0 and T=7 days,"[3]; superposition of thermograms, 40° C./75% RH",2%
same,visual assessment: color or evidence of deliquescence,[4],No change
"C1=CCC(c2cccnc2)NC1 (centres unmarked) [anatabine, 3-[1,2,3,6-Tetrahydropyridin-2-yl]pyridine]",anti-inflammatory activity,[5],has an anti-inflammatory activity
same,reversal of precipitated nicotine withdrawal,[6],does not reverse
same,rewarding effect in rodents trained to self-administer nicotine,[6],do not find anatabine to be rewarding
same,transcription mediated by nuclear factor κB (NFKB),[7],reduces transcription
anatabine citrate,hygroscopicity,[8],extremely hygroscopic
same,hygroscopicity,[8]; listed as citrate,highly hygroscopic
